Results as given in patent US20250019350A1, “SYNTHESIS OF THE PROSTATE SPECIFIC MEMBRANE ANTIGEN (PSMA) RADIOLABELED INHIBITOR [18F]DCFPYL” (Progenics Pharmaceuticals, Inc, priority 2023, published 2025).

Experiment: Radiolysis / stability of [18F]DCFPyL over time by HPLC with radiodetection (RCP, free 18F, radioactive impurities)
Assay type: physicochemical
Settings: for RT 4.8 radioactive impurity: MPA = 0.25% of main peak; for RCP: T = 10 hour; for 18F-DCFPyL / Free 18F: forced radiolysis in ethanol, 364.5 mCi/mL; for RT 5.0 min / RT 5.9 min / RT 12.0 min / RT 12.2 min: radioactive impurity
Protocol: Those of ordinary skill in the art will be aware of techniques and systems for determining the radiochemical purity of a composition. In some cases, the radiochemical purity is determined using an HPLC associated with a radio-detector. Generally, the radiochemical purity is determined under ambient conditions (e.g., ambient temperature, ambient humidity, ambient light, etc.), such as in samples stored under such conditions.
Stability was assessed using reverse phase HPLC on a C18 column with a phosphate buffer/acetonitrile gradient mobile phase, and the elution profile was monitored using both UV and radiochemical detectors. Samples were analyzed either by direct injection onto the HPLC, dilution and injection or including the addition of tetraethylammonium fluoride (TEAF) into the sample before injection.
Known amounts of free ^18F either alone or spiked with TEAF were injected onto the analytic column and the eluent from the column collected over the course of a chromatogram and assaying the radioactivity using a Capintec. […] Adding TEAF into the analytic samples was incorporated into subsequent studies examining potential radiolysis of [^18F]DCFPyL to overcome some of the limitations of free ^18F quantification.
Analytical HPLC method was used. The method employs UV detection at 264 nm for chemical impurities, and an Eckert & Ziegler model B-FC-1000 gamma detector for radiochemical assays.

[1] = T = 6 hr, 5 mg/mL ascorbic acid pH 5.8, 20% ethanol, 99.0 mCi/mL at EOS
[2] = T = 6 hr, 50 mg/mL ascorbic acid pH 5.8, 20% ethanol, 139.7 mCi/mL at EOS
[3] = T = 6 hr, 100% ethanol, 325 mCi/mL at EOS
[4] = T = 7 hr, 100% ethanol, 325 mCi/mL at EOS
[5] = T = 8 hr, 100% ethanol, 325 mCi/mL at EOS
[6] = T = 9 hr, 100% ethanol, 325 mCi/mL at EOS
[7] = T = 10 hr, +TEAF added to sample before HPLC, 100% ethanol, 325 mCi/mL at EOS
[8] = T = 10 hr, 1 mg/mL ascorbic acid pH 5.8, 20% ethanol, 107.0 mCi/mL at EOS
[9] = T = 10 hr, 5 mg/mL ascorbic acid pH 5.8, 20% ethanol, 99.0 mCi/mL at EOS
[10] = T = 10 hr, 50 mg/mL ascorbic acid pH 5.8, 20% ethanol, 139.7 mCi/mL at EOS
[11] = T = 10 h, TEAF added (44 mg/mL) to sharpen the 18F peak
[12] = 147 mCi/mL in 0.9% Sodium Chloride, USP, T = 0 h
[13] = 147 mCi/mL in 0.9% Sodium Chloride, USP, T = 0.5 h
[14] = 147 mCi/mL in 0.9% Sodium Chloride, USP, T = 1.0 h
[15] = 147 mCi/mL in 0.9% Sodium Chloride, USP, T = 1.5 h
[16] = 147 mCi/mL in 0.9% Sodium Chloride, USP, T = 2.0 h
[17] = 147 mCi/mL in 0.9% Sodium Chloride, USP, T = 2.5 h
[18] = 147 mCi/mL in 0.9% Sodium Chloride, USP, T = 3.0 h
[19] = 147 mCi/mL in 0.9% Sodium Chloride, USP, T = 3.5 h
[20] = 147 mCi/mL in 0.9% Sodium Chloride, USP, T = 4.0 h
[21] = 256 mCi/mL in ethanol, T = 1.0 h
[22] = 256 mCi/mL in ethanol, T = 1.5 h
[23] = 256 mCi/mL in ethanol, T = 2.0 h
[24] = 256 mCi/mL in ethanol, T = 2.5 h
[25] = 256 mCi/mL in ethanol, T = 3.0 h
[26] = 256 mCi/mL in ethanol, T = 3.5 h
[27] = 256 mCi/mL in ethanol, T = 4.0 h

SMILES: O=C(O)CC[C@H](NC(=O)N[C@@H](CCCCNC(=O)c1ccc([18F])nc1)C(=O)O)C(=O)O [Lot 18F-DCFPyL, 2-(3-{1-carboxy-5-[(6-[18F]fluoro-pyridine-3-carbonyl)-amino]-pentyl}ureido)-pentanedioic acid]
- Free F-18 (T = 6 hr, 1 mg/mL ascorbic acid pH 5.8, 20% ethanol, 107.0 mCi/mL at EOS): 1.57%
- Free F-18 (T = 6 hr, 1 mg/mL sodium ascorbate, 20% ethanol, 111.5 mCi/mL at EOS): 2.81%
- 18F-DCFPyL (% RCP) [1]: 99.09%
- Free F-18 [1]: 0.91%
- Free F-18 (T = 6 hr, 5 mg/mL sodium ascorbate, 20% ethanol, 114.6 mCi/mL at EOS): 1.45%
- 18F-DCFPyL (% RCP) [2]: 99.64%
- Free F-18 [2]: 0.36%
- RT 4.8 radioactive impurity [2]: <MPA
- 18F-DCFPyL (RCP) [3]: 96.73%
- Free F-18 [3]: 4.27%
- 18F-DCFPyL (RCP) [4]: 96.42%
- Free F-18 [4]: 4.58%
- 18F-DCFPyL (RCP) [5]: 95.76%
- Free F-18 [5]: 4.24%
- 18F-DCFPyL (RCP) [6]: 95.31%
- Free F-18 [6]: 4.69%
- RCP (120 mCi/mL, ascorbic acid 5.6 mg/mL pH 6.0): 96.9%
- RCP (127 mCi/mL, ascorbic acid 2.8 mg/mL pH 6.0): 96.1%
- RCP (166 mCi/mL, ascorbic acid 5.6 mg/mL pH 6.0): 95.5%
- 18F-DCFPyL (RCP) [7]: 92.7%
- Free F-18 [7]: 7.35%
- Free F-18 (T = 10 hr, +TEAF added to sample before HPLC, 100% ethanol, 325 mCi/mL at EOS, listed as 18F DCFPyL): 7.4%
- Free F-18 (T = 10 hr, no TEAF, 100% ethanol, 325 mCi/mL at EOS): 4.55%
- Free F-18 (T = 10 hr, no TEAF, 100% ethanol, 325 mCi/mL at EOS, listed as 18F DCFPyL): 4.6%
- Free F-18 (T = 10 hr, 0.5 mg/mL ascorbic acid pH 5.8, 20% ethanol, 105.8 mCi/mL at EOS): 1.42%
- 18F-DCFPyL (% RCP) [8]: 98.36%
- Free F-18 [8]: 1.64%
- Free F-18 (T = 10 hr, 1 mg/mL sodium ascorbate, 20% ethanol, 111.5 mCi/mL at EOS): 2.74%
- 18F-DCFPyL (% RCP) [9]: 99.05%
- Free F-18 [9]: 0.95%
- Free F-18 (T = 10 hr, 5 mg/mL sodium ascorbate, 20% ethanol, 114.6 mCi/mL at EOS): 1.51%
- 18F-DCFPyL (% RCP) [10]: 99.34%
- Free F-18 [10]: 0.30%
- RT 4.8 radioactive impurity [10]: 0.36%
- 18F-DCFPyL (RCP) (T = 10 hr, 100% ethanol, 325 mCi/mL at EOS): 95.45%
- 18F-DCFPyL (RCP) (T = 10 hr, 100% ethanol, 325 mCi/mL at EOS, listed as 18F DCFPyL): 95.5%
- 18F-DCFPyL (T = 0 h): 98.37 area %
- Free 18F (T = 0 h): 1.63 area %
- 18F-DCFPyL (T = 1 h): 96.66 area %
- Free 18F (T = 1 h): 3.34 area %
- 18F-DCFPyL (T = 2 h): 96.38 area %
- Free 18F (T = 2 h): 3.62 area %
- 18F-DCFPyL (T = 3 h): 95.71 area %
- Free 18F (T = 3 h): 4.29 area %
- 18F-DCFPyL (T = 4 h): 95.60 area %
- Free 18F (T = 4 h): 4.40 area %
- 18F-DCFPyL (T = 5 h): 95.58 area %
- Free 18F (T = 5 h): 4.42 area %
- 18F-DCFPyL (T = 6 h): 95.73 area %
- Free 18F (T = 6 h): 4.27 area %
- 18F-DCFPyL (T = 7 h): 95.42 area %
- Free 18F (T = 7 h): 4.58 area %
- 18F-DCFPyL (T = 8 h): 95.76 area %
- Free 18F (T = 8 h): 4.24 area %
- 18F-DCFPyL (T = 9 h): 95.31 area %
- Free 18F (T = 9 h): 4.69 area %
- 18F-DCFPyL (T = 10 h): 95.45 area %
- Free 18F (T = 10 h): 4.55 area %
- 18F-DCFPyL [11]: 92.65 area %
- Free 18F [11]: 7.35 area %
- two impurities eluting before the 18F-DCFPyL peak, upper end of range (<LLQ to ...) (over 4 hours, 110 mCi/mL lot, 50 mg/mL pH 5.8 ascorbic acid, 24% (w/w) ethanol): ≤ 0.37%
- impurity eluting before the 18F-DCFPyL peak, upper end of range (<LLQ to ...) (over 4 hours, 256 mCi/mL lot, 100 mg/mL pH 2.0 ascorbic acid in collection vial): ≤ 0.35%
- RT 5.0 min (110 mCi/mL in 50 mg/mL pH 5.8 ascorbic acid, T = 0 h): 0.27 area %
- RT 5.0 min (110 mCi/mL in 50 mg/mL pH 5.8 ascorbic acid, T = 0.5 h): 0.28 area %
- RT 5.0 min (110 mCi/mL in 50 mg/mL pH 5.8 ascorbic acid, T = 1.0 h): 0.26 area %
- RT 5.0 min (110 mCi/mL in 50 mg/mL pH 5.8 ascorbic acid, T = 1.5 h): 0.34 area %
- RT 5.0 min (110 mCi/mL in 50 mg/mL pH 5.8 ascorbic acid, T = 2.0 h): 0.24 area %
- RT 5.0 min (110 mCi/mL in 50 mg/mL pH 5.8 ascorbic acid, T = 2.5 h): 0.34 area %
- RT 5.0 min (110 mCi/mL in 50 mg/mL pH 5.8 ascorbic acid, T = 3.0 h): 0.35 area %
- RT 5.0 min (110 mCi/mL in 50 mg/mL pH 5.8 ascorbic acid, T = 3.5 h): 0.31 area %
- RT 5.0 min (110 mCi/mL in 50 mg/mL pH 5.8 ascorbic acid, T = 4.0 h): 0.31 area %
- RT 5.0 min [12]: 0.50 area %
- RT 5.9 min [12]: 0.64 area %
- RT 5.0 min [13]: 0.65 area %
- RT 5.9 min [13]: 0.97 area %
- RT 5.0 min [14]: 0.48 area %
- RT 5.9 min [14]: 1.11 area %
- RT 5.0 min [15]: 0.61 area %
- RT 5.9 min [15]: 1.03 area %
- RT 5.0 min [16]: 0.77 area %
- RT 5.9 min [16]: 1.05 area %
- RT 5.0 min [17]: 0.62 area %
- RT 5.9 min [17]: 0.93 area %
- RT 5.0 min [18]: 0.70 area %
- RT 5.9 min [18]: 0.87 area %
- RT 5.0 min [19]: 0.59 area %
- RT 5.9 min [19]: 0.95 area %
- RT 5.0 min [20]: 0.71 area %
- RT 5.9 min [20]: 0.96 area %
- RT 5.0 min [21]: 0.35 area %
- RT 12.0 min [21]: 0.35 area %
- RT 12.2 min [21]: 0.31 area %
- RT 5.0 min [22]: 0.28 area %
- RT 12.0 min [22]: 0.46 area %
- RT 12.2 min [22]: 0.37 area %
- RT 5.0 min [23]: 0.50 area %
- RT 12.0 min [23]: 0.52 area %
- RT 12.2 min [23]: 0.47 area %
- RT 12.0 min [24]: 0.52 area %
- RT 12.2 min [24]: 0.46 area %
- RT 12.0 min [25]: 0.69 area %
- RT 12.2 min [25]: 0.57 area %
- RT 12.0 min [26]: 0.87 area %
- RT 12.2 min [26]: 0.75 area %
- RT 12.0 min [27]: 0.96 area %
- RT 12.2 min [27]: 0.69 area %
